# Tests used:
# [1] = test system: ventricular arrhythmias induced by two-stage ligation of the left anterior descending coronary artery (Harris dog); experiment: Antiarrhythmic activity by coronary ligation in the Harris dog model (i.v. infusion); assay type: in vivo, dog (adult mongrel); conditions: Harris dog, IV infusion, ED is the effective dose required to sustain normal sinus rhythm; for minimal effective dose: Canis lupus familiaris, read-out: Antiarrhythmic ED in Harris Dog
# Text: The following examples describe the pharmacological evaluation of the compounds made in accordance with the present invention. In particular, these examples describe the evaluation of antiarrhythmic activity by coronary ligation in the well known Harris dog model. Ventricular arrhythmias were induced in adult mongrel dogs (10-15 kg) of either sex by two-stage ligation of the left anterior descending coronary artery. […] The test compound in saline was infused intravenously at a cumulative rate of […] to 1.2 mg/kg/min (base) unitl normal sinus rhythm or toxicity occurred. Normal sinus rhythm was defined as 90-100% normal complexes over a 5 min period.
# Guinea Pig Ileum = experiment: In vitro evaluation of anticholinergic activity in the isolated guinea pig ileum; set-up: species or system guinea pig (male Hartley); conditions: 4 mg/L, inhibition of field-stimulated contractile tension; for inhibition at 4 µg/mL: Cavia porcellus, read-out: Anticholinergic Inhibition of Guinea Pig Ileum (% inhibition at 4 mg/L)
# Protocol: The following examples describe the in vitro evaluation of anticholinergic activity in the isolated guinea pig ileum. Fasted, male Hartley guinea pigs (300-400 g) were killed by a blow to the head. […] One end of the ileal strip was impaled onto a platinum wire electrode; and the other end was tied to a stationary glass rod. Basal tension was set at 0.1-0.3 g and peak developed tension in response to field stimulation (100-150 V, 10 msec pulse duration, 0.2 Hz) was measured with a tension transducer.
# [2] = test system: ventricular arrhythmias induced by ouabain (Ouabain dog); experiment: Antiarrhythmic activity in the Ouabain dog model (i.v. infusion); assay type: in vivo; conditions: Ouabain dog, IV infusion, ED is the effective dose required to sustain normal sinus rhythm; for minimal effective dose: Canis lupus familiaris, read-out: Antiarrhythmic ED in Ouabain Dog
# Protocol: The following examples describe the pharmacological evaluation of the compounds in accordance with the present invention. In particular, these examples describe the evaluation of antiarrhythmic activity in the Oubain dog model. […] The test compound was infused intravenously in saline at a rate of about 0.3 to about 5 mg/kg/min until normal sinus rhythm or toxicity occurred. Normal sinus rhythm was defined as 90-100% normal complexes over a 5 minute period.
Compound,inhibition at 4 µg/mL (Guinea Pig Ileum),minimal effective dose [2],other results
"O=C(Nc1cc(CN2CCCC2)c(O)c(CN2CCCC2)c1)c1ccc(C(F)(F)F)cc1 [XIII, N--(4-trifluoromethylbenzoyl)-3,5,-bis(N--pyrrolidinylmethyl)-4-hydroxyaniline]",43%,5.25 mg/kg,minimal effective dose [1]: 9 mg/kg
"O=C(Nc1cc(CN2CCCC2)c(O)c(CN2CCCC2)c1)c1ccccc1 [Example III, N-benzoyl-3,5-bis(N-pyrrolidinylmethyl)-4-hydroxyaniline]",35%,3.4 mg/kg,minimal effective dose [1]: 5 mg/kg
"O=C(Nc1cc(CN2CCCC2)c(O)c(CN2CCCC2)c1)c1ccccc1Cl [Example X, N--(2-chlorobenzoyl)-3,5,-bis(N--pyrrolidinylmethyl)-4-hydroxyaniline]",0%,5.8 mg/kg,–
"O=C(NCc1cc(CN2CCCC2)c(O)c(CN2CCCC2)c1)c1ccccc1Cl [XXVI, N--(2-chlorobenzoyl)-3,5-bis(pyrrolidinylmethyl)-4-hydroxybenzylamine]",18%,2.3 mg/kg,–
"O=C(NCc1cc(CN2CCCC2)c(O)c(CN2CCCC2)c1)c1ccc(C(F)(F)F)cc1 [XXXV, N-(4-trifluoromethyl)-3,5-bis(pyrrolidinylmethyl)-4-hydroxybenzylamine]",49%,4.5 mg/kg,–
"O=C(Nc1ccccc1)c1cc(CN2CCCC2)c(O)c(CN2CCCC2)c1 [Example XXXIII, N-([3,5-bis(pyrrolidinylmethyl)-4-hydroxy]benzoyl)-aniline]",–,3.5 mg/kg,–
"COc1ccc(C(=O)Nc2cc(CN3CCCC3)c(O)c(CN3CCCC3)c2)cc1 [VIII, N--(4-methoxybenzoyl)-3,5,-bis(N--pyrrolidinylmethyl)-4-hydroxyaniline]",24%,7.2 mg/kg,–
"O=C(NCc1cc(CN2CCCC2)c(O)c(CN2CCCC2)c1)c1ccccc1C(F)(F)F [XXIV, N--(2-trifluoromethylbenzoyl)-3,5-bis(pyrrolidinylmethyl)-4-hydroxybenzylamine]",8.5%,1.7 mg/kg,–
"O=C(Nc1cc(CN2CCCC2)c(O)c(CN2CCCC2)c1)c1ccc([N+](=O)[O-])cc1 [VII, N--(4-nitrobenzoyl)-3,5,-bis(N--pyrrolidinylmethyl)-4-hydroxyaniline]",24%,11 mg/kg,–
CN(C(=O)c1ccccc1)c1cc(CN2CCCC2)c(O)c(CN2CCCC2)c1 [XXXIV],16%,16 mg/kg,–
"CC(=O)Nc1cc(CN2CCCC2)c(O)c(CN2CCCC2)c1 [Example XXIX, 3,5-bis(N-pyrrolidinylmethyl)-4-hydroxyacetanilide]",–,–,Antiarrhythmic ED in Harris Dog [1]: inactive
"O=C(Nc1cc(CN2CCCCC2)c(O)c(CN2CCCCC2)c1)c1ccccc1 [Example XXXII, N-(benzoyl)3,5-bis(piperidinylmethyl)-4-hydroxyaniline]",33%,11 mg/kg,–
"O=C(Nc1cc(CN2CCOCC2)c(O)c(CN2CCOCC2)c1)c1ccccc1 [Example XXXI, N-(benzoy)3,5-bis(morpholinomethyl)-4-hydroxyaniline]",37%,16.5 mg/kg,–
"O=C(NCc1cc(CN2CCCC2)c(O)c(CN2CCCC2)c1)c1cccc(Cl)c1 [XXVII, N--(3-chlorobenzoyl)-3,5-bis(pyrrolidinylmethyl)-4-hydroxybenzylamine]",78%,9.8 mg/kg,–
"O=C(Nc1cc(CN2CCCC2)c(O)c(CN2CCCC2)c1)c1ccccc1C(F)(F)F [XII, N--(2-trifluoromethylbenzoyl)-3,5,-bis(N--pyrrolidinylmethyl)-4-hydroxyaniline]",0%,6.2 mg/kg,–
COc1cc(C(=O)Nc2cc(CN3CCCC3)c(O)c(CN3CCCC3)c2)cc(OC)c1OC [XVIII],5.9%,–,Antiarrhythmic ED in Ouabain Dog [2]: inactive
"Cc1cccc(C)c1C(=O)Nc1cc(CN2CCCC2)c(O)c(CN2CCCC2)c1 [IXX, N--(2,6,dimethylbenzoyl)-3,5,-bis(N--pyrrolidinylmethyl)-4-hydroxyaniline]",15%,4.3 mg/kg,–
"Nc1cc(CN2CCCC2)c(O)c(CN2CCCC2)c1 [Example XXX, 3,5-bis(N-pyrrolidinylmethyl)-4-hydroxyaniline]",3%,–,Antiarrhythmic ED in Harris Dog [1]: inactive

Compound,inhibition at 4 µg/mL (Guinea Pig Ileum),minimal effective dose [2],other results
"Oc1c(CN2CCCC2)cc(OCc2ccccc2)cc1CN1CCCC1 [Example I, 4-benzyloxy-2,6-bis(pyrrolidinylmethyl)phenol]",62%,1.5 mg/kg,minimal effective dose [1]: 4.5 mg/kg
"Cc1ccccc1C(=O)Nc1cc(CN2CCCC2)c(O)c(CN2CCCC2)c1 [XVI, N--(2-methylbenzoyl)-3,5,-bis(N--pyrrolidinylmethyl)-4-hydroxyaniline]",9.4%,2 mg/kg,–
"Nc1ccc(C(=O)Nc2cc(CN3CCCC3)c(O)c(CN3CCCC3)c2)cc1 [XXVIII, N-(4-aminobenzoyl)-3,5-bis(pyrrolidinylmethyl)-4-hydroxyaniline]",0%,4.5 mg/kg,–
"O=C(NCc1cc(CN2CCCC2)c(O)c(CN2CCCC2)c1)c1ccc(Cl)cc1 [XXIII, N--(4-chlorobenzoyl)-3,5-bis(pyrrolidinylmethyl)-4-hydroxybenzylamine]",56%,3.8 mg/kg,–
"Cc1ccc(C(=O)Nc2cc(CN3CCCC3)c(O)c(CN3CCCC3)c2)cc1 [V, N--(4-methylbenzoyl)-3,5,-bis(N--pyrrolidinylmethyl)-4-hydroxyaniline]",22%,3 mg/kg,minimal effective dose [1]: 15 mg/kg
"O=C(Nc1cc(CN2CCCC2)c(O)c(CN2CCCC2)c1)c1cccc(Cl)c1 [XI, N--(3-chlorobenzoyl)-3,5,-bis(N--pyrrolidinylmethyl)-4-hydroxyaniline]",37%,3.75 mg/kg,–
"2,6-bis(pyrrolidinylmethyl)-4-benzyl-phenol [XXXVI]",–,–,Antiarrhythmic ED in Harris Dog [1]: low activity; Anticholinergic Inhibition of Guinea Pig Ileum (% inhibition at 4 mg/L) (Guinea Pig Ileum): 14%
"O=C(Nc1cc(CN2CCCC2)c(O)c(CN2CCCC2)c1)c1ccc(Cl)cc1Cl [VI, N--(2,4,dichorobenzoyl)-3,5,-bis(N--pyrrolidinylmethyl)-4-hydroxyaniline]",11%,–,Antiarrhythmic ED in Ouabain Dog [2]: low activity
"O=C(Nc1cc(CN2CCCC2)c(O)c(CN2CCCC2)c1)c1cccs1 [Example XX, N--(2-thiophenecarbonyl)-3,5-bis(N--pyrrolidinylmethyl)-4-hydroxyaniline]",4%,1.9 mg/kg,–
"O=C(c1ccccc1)c1cc(CN2CCCC2)c(O)c(CN2CCCC2)c1 [Example II, 4-hydroxy-3,5-bis(pyrrolidinylmethyl)benzophenone]",9%,1.9 mg/kg,minimal effective dose [1]: 11 mg/kg
"O=C(NCc1cc(CN2CCCC2)c(O)c(CN2CCCC2)c1)c1cccc(C(F)(F)F)c1 [XXV, N--(3-trifluoromethylbenzoyl)-3,5-bis(pyrrolidinylmethyl)-4-hydroxybenzylamine]",72%,5.5 mg/kg,–
"O=C(Nc1cc(CN2CCCC2)c(O)c(CN2CCCC2)c1)c1c(Cl)cccc1Cl [XVII, N--(2,6,dichlorobenzoyl)-3,5,-bis(N--pyrrolidinylmethyl)-4-hydroxyaniline]",14.3%,2 mg/kg,–
"O=C(Nc1cc(CN2CCCC2)c(O)c(CN2CCCC2)c1)c1cccc(C(F)(F)F)c1 [IX, N--(3-trifluoromethylbenzoyl)-3,5,-bis(N--pyrrolidinylmethyl)-4-hydroxyaniline]",62%,2.25 mg/kg,–
"COc1ccccc1C(=O)Nc1cc(CN2CCCC2)c(O)c(CN2CCCC2)c1 [XIV, N--(2-methoxybenzoyl)-3,5,-bis(N--pyrrolidinylmethyl)-4-hydroxyaniline]",31%,3 mg/kg,–
"Cc1cccc(C(=O)Nc2cc(CN3CCCC3)c(O)c(CN3CCCC3)c2)c1 [XV, N--(3-methylbenzoyl)-3,5,-bis(N--pyrrolidinylmethyl)-4-hydroxyaniline]",32%,5.3 mg/kg,–
"O=C(NCc1cc(CN2CCCC2)c(O)c(CN2CCCC2)c1)c1ccccc1 [Example XXII, N-(benzoyl)-3,5-bis(pyrrolidinylmethyl)-4-hydroxybenzylamine]",32%,3 mg/kg,–
O=C(Cc1cccs1)Nc1cc(CN2CCCC2)c(O)c(CN2CCCC2)c1 [Example XXI],13%,–,Antiarrhythmic ED in Ouabain Dog [2]: low activity

# Reference: patent US4755527A, “Aryl substituted aminomethyl benzene derivatives” (priority 1985, dated 1988)
